Literature values in US20160287532A1 (SignPath Pharma Inc., priority 2015, published 2016).
Like-named read-outs stand apart in the source and are kept apart here.

How the values were obtained:
[1] = test system: IL-6
[2] = test system: MMP-3; settings: curcumin added to cell culture
[3] = test system: IL-6; settings: Wistar albino rats, experimental acute pancreatitis
[4] = test system: IL-1β
[5] = test system: IL-8; settings: rats with non-bacterial prostatitis
[6] = test system: TNF-α; settings: acute pancreatitis mouse model
[7] = test system: interferon-γ; settings: viral induced ARDS mouse model
[8] = test system: TIMP-4; settings: high concentrations of curcumin
[9] = test system: TNF-α; settings: Wistar albino rats, experimental acute pancreatitis
[10] = test system: interferon-γ; settings: splenic T lymphocytes
[11] = test system: TIMP-3; settings: high concentrations of curcumin
[12] = test system: MMP-9; settings: human astroglioma cells
[13] = test system: MMP-3; settings: helicobacter pylori infected cells; dose dependent
[14] = test system: IL-8; settings: monocytes, high glucose environment
[15] = test system: NF-κB; settings: IVD cells of patients with acute spinal injury
[16] = test system: MMP-2; settings: MDA breast cancer cell line
[17] = test system: NF-κB; settings: chondrocytes
[18] = test system: pro-inflammatory cytokines; settings: colon carcinoma cell lines
[19] = test system: MCP-1; settings: monocytes, high glucose environment
[20] = if injected intravenously
[21] = test system: MMP-1; settings: human astroglioma cells
[22] = test system: pro-inflammatory cytokines; settings: pancreatic carcinoma cell lines
[23] = test system: IL-6; settings: monocytes, high glucose environment
[24] = test system: acute pancreatitis; settings: acute pancreatitis mouse model
[25] = test system: TNF-α; settings: peritoneal macrophages
[26] = test system: monocyte chemoattractant protein-1 (MCP-1); settings: monocytes and macrophages
[27] = test system: MMP-1; settings: IL-1β pre-stimulated disc cells
[28] = test system: MMP-2; settings: A549 in vitro
[29] = test system: IL-8; settings: human articular chondrocytes
[30] = test system: TIMP-1; settings: MDA-MB-231 cells
[31] = test system: MMP-9; settings: A549 in vitro
[32] = test system: TNF-α; settings: monocytes and macrophages
[33] = test system: IL-1β; settings: monocytes and macrophages
[34] = test system: MMP-3; settings: equine cartilage explants; dose dependent
[35] = test system: pro-inflammatory cytokines; settings: hepatocellular carcinoma cell lines
[36] = test system: TIMP-2; settings: high concentrations of curcumin
[37] = test system: TNF-α; settings: monocytes, high glucose environment
[38] = test system: collagen type II; settings: IVD cells of patients with acute spinal injury
[39] = test system: IL-8; settings: monocytes and macrophages
[40] = test system: viral induced acute respiratory distress syndrome; settings: viral induced ARDS mouse model
[41] = test system: MMP-1; settings: oral, mice; dose dependent manner
[42] = test system: IL-6; settings: rats with non-bacterial prostatitis
[43] = test system: macrophage inflammatory protein-1α (MIP-1α); settings: monocytes and macrophages
[44] = test system: IL-12; settings: peritoneal macrophages
[45] = test system: IL-6; settings: rheumatoid synovial fibroblasts
[46] = test system: TIMP-1; settings: high concentrations of curcumin
[47] = test system: pro-inflammatory cytokines; settings: multiple myeloma cell lines
[48] = test system: IL-6; settings: viral induced ARDS mouse model
[49] = test system: IL-8; settings: human esophageal epithelial cells

Structure (SMILES): COc1cc(/C=C/C(=O)/C=C(O)/C=C/c2ccc(O)c(OC)c2)ccc1O [curcumin, 1,7-bis(4-hydroxy-3-methoxyphenyl)-1,6-heptadiene-3,5-dione]
- expression of IL-6 decreased ([1]; 10 μM curcumin): 50%
- expression of IL-6 decreased ([1]; 20 μM curcumin): 70%
- MMP-3 [2]: dose dependent suppression
- IL-6 levels [3]: reduced
- Expression of IL-1β reduced ([4]; 10 μM curcumin): 70%
- Expression of IL-1β reduced ([4]; 20 μM curcumin): 75%
- IL-8 expression [5]: reduced
- TNF-α levels [6]: suppression
- expression of interferon-γ [7]: reduced
- TIMP-4 [8]: up-regulated
- TNF-α levels [9]: reduced
- production of interferon-γ [10]: inhibited
- TIMP-3 [11]: up-regulated
- MMP-9 [12]: Suppression
- MMP-3 activity [13]: suppressed
- release of IL-8 [14]: markedly reduced
- IL-1 induced NF-κB activity [15]: blocked
- MMP-2 [16]: inhibited
- IL-1 induced NF-κB activation [17]: decrease
- pro-inflammatory cytokines [18]: suppressed
- release of MCP-1 [19]: markedly reduced
- cardiopathy [20]: QT prolongation
- MMP-1 [21]: Suppression
- pro-inflammatory cytokines [22]: suppressed
- release of IL-6 [23]: markedly reduced
- pancreatic injury [24]: decreased
- production of TNF-α [25]: inhibited
- MCP-1 release [26]: suppresses
- reduction in MMP-1 expression ([27]; 5 μM curcumin): 22%
- reduction in MMP-1 expression ([27]; 10 μM curcumin): 60%
- reduction in MMP-1 expression ([27]; 20 μM curcumin): 78%
- MMP-2 [28]: Inhibition
- release of IL-8 [29]: block
- TIMP-1 [30]: up-regulated
- MMP-9 [31]: Inhibition
- TNF-α release [32]: suppresses
- IL-1β release [33]: suppresses
- IL-1β stimulated MMP-3 release [34]: reduced
- pro-inflammatory cytokines [35]: suppressed
- TIMP-2 [36]: up-regulated
- release of TNF-α [37]: markedly reduced
- IL-1 inhibition of collagen type II expression [38]: reversed
- IL-8 release [39]: suppresses
- fibrosis [40]: reduction
- inflammation [40]: marked decrease
- MMP-1 expression in joints [41]: suppress
- IL-6 expression [42]: reduced
- MIP-1α release [43]: suppresses
- expression of IL-12 [44]: inhibited
- release of IL-6 [45]: block
- TIMP-1 [46]: up-regulated
- pro-inflammatory cytokines [47]: suppressed
- expression of IL-6 [48]: reduced
- release of IL-8 [49]: block
